Reference: patent US12534452B2, “N-(1H-imidazol-2-yl)benzamide compound and pharmaceutical composition comprising the same as active ingredient” (KAINOS MEDICINE, INC., priority 2019, dated 2026)

The compounds below were run against IRAK4 (Homo sapiens (Human), UniProt Q9NWZ3) (assay: In vitro IRAK4 phosphorylation activity assay). Conditions: [γ-33P]-ATP, myelin basic protein substrate, 40 minutes at room temperature; categories.
Chain of IRAK4 (Q9NWZ3 whole entry): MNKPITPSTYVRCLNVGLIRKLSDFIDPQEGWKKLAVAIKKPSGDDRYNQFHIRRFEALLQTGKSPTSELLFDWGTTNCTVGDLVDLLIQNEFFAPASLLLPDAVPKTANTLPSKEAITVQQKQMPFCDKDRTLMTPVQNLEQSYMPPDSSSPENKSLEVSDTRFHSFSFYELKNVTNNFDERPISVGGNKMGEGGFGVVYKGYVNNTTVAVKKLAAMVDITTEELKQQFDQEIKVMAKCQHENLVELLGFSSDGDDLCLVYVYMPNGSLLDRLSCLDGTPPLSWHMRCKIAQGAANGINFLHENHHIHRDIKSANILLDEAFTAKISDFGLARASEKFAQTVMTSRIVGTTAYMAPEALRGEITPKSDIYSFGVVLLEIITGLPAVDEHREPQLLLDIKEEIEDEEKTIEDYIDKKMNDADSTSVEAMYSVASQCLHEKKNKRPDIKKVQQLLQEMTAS
Type: biochemical
Outline: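 Radiometric filter-binding assay, no compound–kinase preincubation; 8 mM MOPS pH 7.0, 0.2 mM EDTA, 10 mM Mg acetate, 0.33 mg/mL myelin basic protein substrate, [γ-33P]-ATP. Reaction 40 min at room temperature, stopped with phosphoric acid, scintillation counting; IC50 reported in categories.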
`CN1CCN(CCCCc2cn(-c3ccccc3)c(NC(=O)c3cccc(-c4cnn(C)c4)c3)n2)CC1` [Example 221, 3-(1-methyl-1H-pyrazol-4-yl)-N-(4-(4-(4-methylpiperazin-1-yl)butyl)-1-phenyl-1H-imidazol-2-yl)benzamide] gave an IC50 of under 50 nM.
For `Cn1cc(-c2cccc(C(=O)Nc3nc(CCCC(=O)NN4CCCCC4)cn3-c3ccccc3)c2)cn1` [Example 152, 3-(1-methyl-1H-pyrazol-4-yl)-N-(4-(4-oxo-4-(piperidin-1-ylamino)butyl)-1-phenyl-1H-imidazol-2-yl)benzamide], the IC50 was 50 to 100 nM.
`CN1CCN(CCCc2cn(-c3ccccc3)c(NC(=O)c3cccc(-c4cn[nH]c4)c3)n2)CC1` [Example 108, N-(4-(3-(4-methylpiperazin-1-yl)propyl)-1-phenyl-1H-imidazol-2-yl)-3-(1H-pyrazol-4-yl)benzamide] was tested, and the IC50 was under 50 nM.
Compound `O=C(Nc1nc(CCCCC(=O)N2CCCCC2)cn1-c1ccccc1)c1cccc(-c2cn[nH]c2)c1` [Example 79, N-(4-(5-oxo-5-(piperidin-1-yl)pentyl)-1-phenyl-1H-imidazol-2-yl)-3-(1H-pyrazol-4-yl)benzamide] has an IC50 of under 50 nM.
In the case of `O=C(Nc1nc(CCC(=O)N2CC[C@@H](C(=O)O)C2)cn1-c1ccccc1)c1cccc(-c2cn[nH]c2)c1` [Example 25, (R)-1-(3-(2-(3-(1H-pyrazol-4-yl)benzamido)-1-phenyl-1H-imidazol-4-yl)propanoyl)pyrrolidine-3-carboxylic acid], the IC50 is reported as 50 to 100 nM.
With `Cn1cc(-c2cccc(C(=O)Nc3nc(CCCC(=O)NC[C@@H](F)C(C)(C)O)cn3-c3ccccc3)c2)cn1` [Example 185, (R)—N-(4-(4-((2-fluoro-3-hydroxy-3-methylbutyl)amino)-4-oxobutyl)-1-phenyl-1H-imidazol-2-yl)-3-(1-methyl-1H-pyrazol-4-yl)benzamide] the IC50 was 50 to 100 nM.
In the case of `Nc1ccc(-c2cccc(C(=O)Nc3nc(CCCCCCN4CCCC4=O)cn3-c3ccccc3)c2)cn1` [Example 276, 3-(6-aminopyridin-3-yl)-N-(4-(6-(2-oxopyrrolidin-1-yl)hexyl)-1-phenyl-1H-imidazol-2-yl)benzamide], the IC50 is reported as under 50 nM.
`CN(C)C1CCN(C(=O)CCCc2cn(-c3ccccc3)c(NC(=O)c3cccc(-c4ccc5ncsc5c4)c3)n2)CC1` [Example 281, 3-(benzo[d]thiazol-6-yl)-N-(4-(4-(4-(dimethylamino)piperidin-1-yl)-4-oxobutyl)-1-phenyl-1H-imidazol-2-yl)benzamide] showed an IC50 of under 50 nM.
Work on `Cn1cc(-c2cccc(C(=O)Nc3nc(CCCC(=O)NCCO)cn3-c3ccccc3)c2)cn1` [Example 164, N-(4-(4-((2-hydroxyethyl)amino)-4-oxobutyl)-1-phenyl-1H-imidazol-2-yl)-3-(1-methyl-1H-pyrazol-4-yl)benzamide] yielded an IC50 of under 50 nM.
For `CNC(=O)CCCCCc1cn(-c2ccccc2)c(NC(=O)c2cccc(-c3cn[nH]c3)c2)n1` [Example 94, N-(4-(6-(methylamino)-6-oxohexyl)-1-phenyl-1H-imidazol-2-yl)-3-(1H-pyrazol-4-yl)benzamide], the IC50 was under 50 nM.
`O=C(Nc1nc(CCCCCC(=O)N2CCCCC2)cn1-c1ccccc1)c1cccc(-c2ccc3[nH]ncc3c2)c1` [Example 237, 3-(1H-indazol-5-yl)-N-(4-(6-oxo-6-(piperidin-1-yl)hexyl)-1-phenyl-1H-imidazol-2-yl)benzamide] gave an IC50 of under 50 nM.
With `CNC(=O)Cc1cn(-c2ccccc2)c(NC(=O)c2ccccc2)n1` [Example 50, N-(4-(2-(methylamino)-2-oxoethyl)-1-phenyl-1H-imidazol-2-yl)benzamide] the IC50 was over 100 nM.
Compound `Cn1cc(-c2cccc(C(=O)Nc3nc(CCCC(=O)NCC(C)(C)O)cn3-c3ccccc3)c2)cn1` [Example 170, N-(4-(4-((2-hydroxy-2-methylpropyl)amino)-4-oxobutyl)-1-phenyl-1H-imidazol-2-yl)-3-(1-methyl-1H-pyrazol-4-yl)benzamide] has an IC50 of under 50 nM.
In the case of `Cn1cc(-c2cccc(C(=O)Nc3nc(CCCC(=O)N4CCC(N)CC4)cn3-c3ccccc3)c2)cn1` [Example 209, N-(4-(4-(4-aminopiperidin-1-yl)-4-oxobutyl)-1-phenyl-1H-imidazol-2-yl)-3-(1-methyl-1H-pyrazol-4-yl)benzamide], the IC50 is reported as under 50 nM.
`Cn1cc(-c2cccc(C(=O)Nc3nc(CCCC(=O)NC4CCOCC4)cn3-c3ccccc3)c2)cn1` [Example 157, 3-(1-methyl-1H-pyrazol-4-yl)-N-(4-(4-oxo-4-((tetrahydro-2H-pyran-4-yl)amino)butyl)-1-phenyl-1H-imidazol-2-yl)benzamide] was tested, and the IC50 was under 50 nM.
Work on `Nc1ccc(-c2cccc(C(=O)Nc3nc(CCCCCC(=O)N4CCCCC4)cn3-c3ccccc3)c2)cn1` [Example 271, 3-(6-aminopyridin-3-yl)-N-(4-(6-oxo-6-(piperidin-1-yl)hexyl)-1-phenyl-1H-imidazol-2-yl)benzamide] yielded an IC50 of under 50 nM.
In the case of `COC[C@@H]1CCCN1C(=O)CCCCc1cn(-c2ccccc2)c(NC(=O)c2cccc(-c3cn[nH]c3)c2)n1` [Example 86, (S)—N-(4-(5-(2-(methoxymethyl)pyrrolidin-1-yl)-5-oxopentyl)-1-phenyl-1H-imidazol-2-yl)-3-(1H-pyrazol-4-yl)benzamide], the IC50 is reported as under 50 nM.
Work on `COC[C@@H]1CCCN1NC(=O)Cc1cn(-c2ccccc2)c(NC(=O)c2cccc(-c3cn[nH]c3)c2)n1` [Example 44, (S)—N-(4-(2-((2-(methoxymethyl)pyrrolidin-1-yl)amino)-2-oxoethyl)-1-phenyl-1H-imidazol-2-yl)-3-(1H-pyrazol-4-yl)benzamide] yielded an IC50 of over 100 nM.
In the case of `O=C(CCCCc1cn(-c2ccccc2)c(NC(=O)c2cccc(-c3cn[nH]c3)c2)n1)NC1CC1` [Example 88, N-(4-(5-(cyclopropylamino)-5-oxopentyl)-1-phenyl-1H-imidazol-2-yl)-3-(1H-pyrazol-4-yl)benzamide], the IC50 is reported as under 50 nM.
In the case of `C[C@@H]1CCCCN1C(=O)CCCc1cn(-c2ccccc2)c(NC(=O)c2cccc(-c3cn[nH]c3)c2)n1` [Example 61, (R)—N-(4-(4-(2-methylpiperidin-1-yl)-4-oxobutyl)-1-phenyl-1H-imidazol-2-yl)-3-(1H-pyrazol-4-yl)benzamide], the IC50 is reported as under 50 nM.
`C[C@H]1CCCCN1C(=O)CCCCCc1cn(-c2ccccc2)c(NC(=O)c2cccc(-c3cn[nH]c3)c2)n1` [Example 95, (S)—N-(4-(6-(2-methylpiperidin-1-yl)-6-oxohexyl)-1-phenyl-1H-imidazol-2-yl)-3-(1H-pyrazol-4-yl)benzamide] was tested, and the IC50 was under 50 nM.
In the case of `CN1CCCN(C(=O)CCc2cn(-c3ccccc3)c(NC(=O)c3cccc(-c4cnn(C)c4)c3)n2)CC1` [Example 195, N-(4-(3-(4-methyl-1,4-diazepan-1-yl)-3-oxopropyl)-1-phenyl-1H-imidazol-2-yl)-3-(1-methyl-1H-pyrazol-4-yl)benzamide], the IC50 is reported as under 50 nM.
With `CN1CCN(C(=O)CCCc2cn(-c3ccccc3)c(NC(=O)c3cccc(-c4cn[nH]c4F)c3)n2)CC1` [Example 230, 3-(5-fluoro-1H-pyrazol-4-yl)-N-(4-(4-(4-methylpiperazin-1-yl)-4-oxobutyl)-1-phenyl-1H-imidazol-2-yl)benzamide] the IC50 was under 50 nM.
